Test results published in patent US20060166989A1, “2-naphthamide derivatives” (Bayer Healthcare AG, priority 2002, published 2006).

Columns and labels:
IP receptor = biological target: T1, IP receptor (Homo sapiens, UniProt P43119); assay: Iloprost-induced cAMP production assay in HEL cells (Assay 2); type: cell-based; conditions: read-out: Activity grade assay 2
T1 construct: HEL cells were collected with centrifugation and washed with cAMP assay buffer; host or cells: HEL 92.1.7 human erythroleukemia cells
T1 sequence (P43119 whole entry): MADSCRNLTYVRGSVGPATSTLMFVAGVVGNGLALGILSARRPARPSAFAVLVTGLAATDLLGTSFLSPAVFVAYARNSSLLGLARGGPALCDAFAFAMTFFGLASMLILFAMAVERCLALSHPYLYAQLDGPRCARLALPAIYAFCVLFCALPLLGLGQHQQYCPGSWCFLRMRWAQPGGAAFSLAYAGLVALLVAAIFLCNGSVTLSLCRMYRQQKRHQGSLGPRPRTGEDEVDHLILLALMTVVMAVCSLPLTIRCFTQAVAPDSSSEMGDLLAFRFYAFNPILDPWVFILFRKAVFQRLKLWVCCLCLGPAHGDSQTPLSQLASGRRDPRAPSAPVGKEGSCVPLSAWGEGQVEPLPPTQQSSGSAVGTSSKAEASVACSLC
Protocol: [Iloprost-Induced cAMP Production Assay in HEL Cells] (Assay 2)
HEL cells were collected with centrifugation and washed with cAMP assay buffer (CAB: Hank's balanced salt solution, 17 mM Hepes, 0.1% bovine serum albumin, 1 mM IBMX, 0.4% DMSO, and 1 mM L-ascorbic acid sodium salt (pH 7.4)). Cells were suspended at the density of 2.5×10^5 cells/ml in CAB, and twenty thousand cells in 80 μl aliquot of cell suspension were put in a well of 96 well plate (Falcon). Then, 10 μl of compound solution diluted with 1% DMSO in CAB or buffer alone was added. The plate was incubated at 37° C. for 30 min. Then, another 10 μl containing 100 nM iloprost in CAB or buffer alone was added and further incubated at 37° C. for 30 min. cAMP content in the well was measured by a cAMP ELISA kit (Applied Biosystems, USA).
Results of Iloprost-induced cAMP production assay (Assay2) are shown in Examples and tables of the Examples below. For practical reasons, the compounds are grouped in three classes of activity as follows: A(=or<)0.1μM<B(=or<)1μM<C

Compound	IC50 (IP receptor)	melting point
O=C(NC(Cc1ccccn1)C(=O)O)c1ccc2cc(OCc3ccccc3)ccc2c1 (stereo not drawn) [Example 1-43]	0.1 to 1 µM	172 to 173 °C (dec.)
O=C(NC(Cc1ccc(-c2ccccc2)cc1)C(=O)O)c1ccc2cc(OCc3ccccc3)ccc2c1 (stereo not drawn) [Example 1-73]	0.1 to 1 µM	250 to 252 °C
O=C(NC(Cc1ccccc1)C(=O)O)c1ccc2cc(OCCc3ccccn3)ccc2c1 (stereo not drawn) [Example 1-78]	0.1 to 1 µM	143 °C
O=C(NC(Cc1ccccc1)C(=O)O)c1ccc2cc(OCCc3cccnc3)ccc2c1 (stereo not drawn) [Example 1-77]	0.1 to 1 µM	113 °C
Cc1c(COc2ccc3cc(C(=O)NC(Cc4ccccc4)C(=O)O)ccc3c2)cccc1[N+](=O)[O-] (stereo not drawn) [Example 1-39]	0.1 to 1 µM	202 °C
O=C(NC(Cc1ccccc1)C(=O)O)c1ccc2cc(OCc3cccc(OC(F)(F)F)c3)ccc2c1 (stereo not drawn) [Example 1-36]	0.1 to 1 µM	157 °C
O=C(NC(Cc1ccccc1)C(=O)O)c1ccc2cc(OCc3ccccn3)ccc2c1 (stereo not drawn) [Example 1-9]	0.1 to 1 µM	214 °C
O=C(NC(Cc1ccc(-c2ccncc2)cc1)C(=O)O)c1ccc2cc(OCc3ccccc3)ccc2c1 (stereo not drawn) [Example 1-75]	0.1 to 1 µM	247 to 249 °C (dec.)
O=C(NC(Cc1ccccc1F)C(=O)O)c1ccc2cc(OCc3ccccc3)ccc2c1 (stereo not drawn) [Example 1-50]	< 0.1 µM	211 to 213 °C
O=C(NC(Cc1ccccc1)C(=O)O)c1ccc2cc(OCc3ccc(F)c(F)c3)ccc2c1 (stereo not drawn) [Example 1-10]	< 0.1 µM	185 °C
CS(=O)(=O)Nc1ccc(CC(NC(=O)c2ccc3cc(OCc4ccccc4)ccc3c2)C(=O)O)cc1 (stereo not drawn) [Example 1-68]	> 1 µM	236 to 237 °C

Next, values leading:

IC50 (IP receptor)	melting point	Compound
< 0.1 µM	219 to 221 °C	O=C(NC(Cc1ccc(I)cc1)C(=O)O)c1ccc2cc(OCc3ccccc3)ccc2c1 (stereo not drawn) [Example 1-71]
< 0.1 µM	145 °C	CCOc1cccc(COc2ccc3cc(C(=O)NC(Cc4ccccc4)C(=O)O)ccc3c2)c1 (stereo not drawn) [Example 1-91]
< 0.1 µM	227 to 228 °C	O=C(NC(Cc1ccc([N+](=O)[O-])cc1)C(=O)O)c1ccc2cc(OCc3ccccc3)ccc2c1 (stereo not drawn) [Example 1-46]
< 0.1 µM	197 to 199 °C	O=C(NC(Cc1ccccc1)C(=O)O)c1ccc2cc(OCc3cccc(F)c3)ccc2c1 (stereo not drawn) [Example 1-6]
< 0.1 µM	180 °C	O=C(NC(Cc1ccccc1)C(=O)O)c1ccc2cc(OCc3cc(Cl)cc(Cl)c3)ccc2c1 (stereo not drawn) [Example 1-34]
< 0.1 µM	212 to 214 °C (dec.)	O=C(NC(Cc1ccc(C(F)(F)F)cc1)C(=O)O)c1ccc2cc(OCc3ccccc3)ccc2c1 (stereo not drawn) [Example 1-3]
< 0.1 µM	157 °C	O=C(NC(Cc1ccccc1)C(=O)O)c1ccc2cc(OCc3cccc(O)c3)ccc2c1 (stereo not drawn) [Example 1-85]
